Data set [1] concerns adriamycin-resistant S 180 mouse sarcoma cells. As to the kind of experiment: Cytotoxicity in proliferating adriamycin-resistant S 180 mouse sarcoma cells (MTT, 6 days) in the absence or presence of adriamycin. The format is cell-based. As to conditions: S-180, 144 h. How it is done:
was tested on cells resistant to adriamycin as follows:
Proliferating, adriamycin-resistant S 180 mouse sarcoma cells were cultivated for six days in the presence of various concentrations of test substances. Concentrations of the test substances with a cytotoxic or cytostatic effect were indicated by reduced cell growth or by the cells dying off. The end point of the assay is the number of living cells per culture which is determined indirectly, making use of the property of vital cells to reduce the dye MTT [=3-(4,5-dimethylthiazol-2-yl)-2,5-diphenyltetrazoliumbromide] to coloured formazane. The IC50 denotes the concentration of a test substance which reduces the number of vital cells per culture vessel to 50% of the untreated control. […] Therefore, two IC50 values are obtained for each test substance, one in the presence of adriamycin (IC50 ADR), the other in the absence of adriamycin (IC50). The difference in the logarithms (to the base ten) of the two IC50 values: Δ=lgIC50-lgIC50 ADR is a measure of the increase in the cytotoxicity of the test substance brought about by adriamycin.
Exponentially growing adriamycin-resistant or adriamycin-sensitive S 180 cells were plated out in 96-well flat-bottomed microtitre dishes at a rate of 2000 cells per well in 100 μl of growth medium (RPMI-1640 containing 10% foetal calf serum). The culture dishes were incubated in an incubator at 37° C., 5% CO2 at 100% relative humidity. After 24 hours, 50 μl of growth medium containing various concentrations of test substance and 50 μl of growth medium with or without adriamycin were added to each well. Following a further 6-day cultivation period, 50 μl of tetrazolium salt solution [5 mg of 3-(4,5-dimethylthiazol-2-yl)-2,5-diphenyl-tetrazoliumbromide per ml of phosphate-buffered saline solution, diluted 1:5 (v/v) with RPMI-1640 before use] were pipetted into each well. After […] incubation the culture medium was carefully suction filtered and the formazane formed intracellularly was solubilised with 150 μl of dimethylsulphoxide per well. The dishes were briefly shaken and the optical density was measured at 570 nm with a photometer such as a Dynatech MR-600 apparatus. The formation of the coloured formazane by reduction of the tetrazolium salt is proportional to the number of living cells. The averages of three measurements were used to calculate the IC50 values (dilution stage: 1:2).

The nature of data set [2]: Tolerability after i.v. administration in mice. As to conditions: 100 mg/kg i.v. in mice. It counts as in vivo.
[3] abbreviates: Adriamycin 0 ng/ml (absence of adriamycin), read-out: IC50.
Where [4] appears, read: in presence of Adriamycin 100 ng/ml, read-out: IC50 (IC50 ADR).

Where two headings read alike, the source gives them in different places.

For the compound `COC(=O)NC1CCN(c2nc(N3CCOCC3)c3ncnc(N(C)Cc4ccccc4)c3n2)CC1` [Substance B], the figures for the IC50 in data set [1] (setting [3]) and in data set [1] (setting [4]) were 10 µg/mL and 1 µg/mL, respectively.
On to `CN(Cc1cccc2ccccc12)c1nc(N2CCC(N(C)C)CC2)nc2c(N3CCOCC3)ncnc12` [Substance K, 2-[4-(N,N-dimethylamino)-piperidino]-4-[N-(naphth-1-yl-methyl)-N-methyl-amino]-8-morpholino-pyrimido-[5,4-d]pyrimidine], for which the IC50 (in general, the concentration at which inhibition is half-maximal) in data set [1] (setting [3]) is 3 µg/mL; in data set [1] (setting [4]), 0.1 µg/mL.
Taken in the same sequence, the figures for `CN(Cc1cccc2ccccc12)c1ncnc2c(N3CCOCC3)nc(N3CCC(N(C)C)CC3)nc12` [Substance H, 2-[4-(N,N-dimethylamino)-piperidino]-8-[N-(naphth-1-yl-methyl)-N-methyl-amino]-4-morpholino-pyrimido [5,4-d]pyrimidine] were 3 µg/mL and 0.1 µg/mL.
Turning to `CN(Cc1ccccc1)c1ncnc2c(N3CCCCC3)nc(N3CCC(N(C)C)CC3)nc12` [Substance C, 2-[4-(N,N-dimethylamino)-piperidino]-8-(N-benzyl-N-methyl-amino)-4-piperidino-pyrimido [5,4-d]pyrimidine], the figures for the IC50 in data set [1] (setting [3]) and in data set [1] (setting [4]) were 2 µg/mL and 0.3 µg/mL, respectively.
Taken in the same sequence, the figures for `CN(Cc1ccccc1)c1nc(N2CCC(NCC(c3ccccc3)c3ccccc3)CC2)nc2c(N3CCOCC3)ncnc12` [Substance I, 2-[4-(2,2-diphenylethylamino)-piperidino]-4-(N-benzyl-N-methyl-amino)-8-morpholino-pyrimido-[5,4-d]pyrimidine] were 10 µg/mL and 0.3 µg/mL.
As for `COc1cc2c(cc1OC)CN(c1ncnc3c(N4CCOCC4)nc(N4CCC(N(C)C)CC4)nc13)CC2` [Substance G, 2-[4-(N,N-dimethylamino)-piperidino]-8-(6,7-dimethoxy-1,2,3,4-tetrahydro-isoquinolin-2-yl)-4-morpholino-pyrimido [5,4-d]pyrimidine], the IC50 in data set [1] (setting [3]) came out at 3 µg/mL; in data set [1] (setting [4]), 0.1 µg/mL. Moreover, in data set [2], the “toxic side effects / tolerability” value is reported as “did not lead to any detectable toxic side effects”.
Take `CN(Cc1ccccc1)c1nc(N2CCC(N(C)C)CC2)nc2c(N3CCOCC3)ncnc12` [Substance F, 4-(N-benzyl-methyl-amino)-2-[4-(N,N-dimethylamino)-piperidino]-8-morpholino-pyrimido [5,4-d]pyrimidine]: the IC50 is 3 µg/mL in data set [1] (setting [3]) and 0.3 µg/mL in data set [1] (setting [4]).
Taken in the same sequence, the figures for `CN(Cc1ccccc1)c1ncnc2c(N3CCOCC3)nc(N3CCC(N(C)C)CC3)nc12` [Substance A, 2-[4-(N,N-dimethylamino)-piperidino]-8-(N-benzyl-N-methyl-amino)-4-morpholino-pyrimido [5,4-d]pyrimidine] were 1 µg/mL and 0.3 µg/mL.
Taken in the same sequence, the figures for `CN(Cc1ccccc1)c1ncnc2c(N3CCOCC3)nc(N3CCC(N4CCCCC4)CC3)nc12` [Substance D, 8-(N-benzyl-N-methyl-amino)-2-[4-(piperidino)-piperidin-1-yl]-4-morpholino-pyrimido [5,4-d]pyrimidine] were 3 µg/mL and 0.3 µg/mL.
Taken in the same sequence, the figures for `CN(C)CC1CCN(c2nc(N3CCOCC3)c3ncnc(N(C)Cc4cccc5ccccc45)c3n2)CC1` [Substance E, 2-[4-(N,N-dimethylaminomethyl)-piperidino]-8-[N-(napth-1-yl-methyl)-N-methyl-amino]-4-morpholino-pyrimido [5,4-d]pyrimidine] were 3 µg/mL and 0.1 µg/mL.
Take `CN(C)C1CCN(c2nc(N3CCOCC3)c3ncnc(N(CCCNC(=O)c4ccccc4)Cc4ccccc4)c3n2)CC1` [Substance J, 2-[4-(N, N-dimethylamino)-piperidino]-8-[N-benzyl-N-(3-benzoylaminopropyl)-amino]-4-morpholino-pyrimido-[5,4-d]pyrimidine]: the IC50 in data set [1] (setting [3]) turned out to be 3 µg/mL; in data set [1] (setting [4]), 0.1 µg/mL.

Values taken from US5618814A, “Trisubstituted pyrimido [5,4-d] pyrimidines for modulating multi-drug resistance and pharmaceutical compositions containing these compounds” (Dr. Karl Thomae GmbH, priority 1993, dated 1997).
